In US8969020B2, “Peptide sequence that promotes tumor invasion” (MetaMol Theranostics LLC, priority 2005, dated 2015):

How the values were obtained:
Assay type in all cases: cell-based, human
MCF-7 cells [1] = assay: Soft agar colony formation by MCF-7 cells with synthetic peptide added; conditions: after ten days, peptide replenished with every addition of medium
Procedure: To assess effect on soft agar colony formation, 5×10^5 MCF-7 cells per 60-mm dish were plated in triplicates with a top layer of 0.3% agar (BACTO Agar, Difco, Detroit Mich.) and a bottom layer of 0.5% agar (both in a-MEM). Peptide SEQ ID NO: 37 was added at the indicated concentrations upon plating and was replenished with every addition of medium. Every other day, 0.4 ml of medium was supplemented. After ten days, photographs were taken at high and low magnification and the surface area of all clones in five fields was measured with the imaging software ImageJ (NIH) or Metamorph.
(§1) 5×10^5 MCF-7 cells per 60-mm dish were plated in triplicates with a top layer of 0.3% agar (BACTO Agar, Difco, Detroit, Mich.) and a bottom layer of 0.5% agar (both in α-MEM). Peptide was added at the indicated concentrations upon plating and was replenished with every addition of medium. For the investigation of cell growth rates, MCF-7 cells were plated at 5000 cells/well in 24-well plates in the presence or absence of peptide. Effects of a synthetic peptide on MDA-MB-435 cells are shown in FIG. 9C after 10 days in the presence or absence of synthetic peptides. hOPN Exon-5 peptide (NAVSSEETNDFKQE) SEQ ID NO: 34 and scrambled hOPN-c peptide (SSEEQETGVEKASSNS) SEQ ID NO: 33 served as non-specific controls.

MCF-7 cells [2] = assay: Cell growth rate of MCF-7 cells in 24-well plates with or without peptide; conditions: 5000 cells/well, daily cell counts
Procedure: Two control peptides (hOPN-c scrambled sequence SEQ ID NO: 33 and hOPN-exon5 SEQ ID NO: 34) had no effect (data not shown). […] For investigation of cell growth rates, MCF-7 cells were plated at 5000 cells/well in 24-well plates in the presence or absence of peptide. Daily, five wells per group were harvested by trypsinization and the cell numbers were determined in a Coulter™ Z-Series Counter.
as §1

MCF-7 cells [3] = assay: Adhesion of MCF-7 cells to coated wells; conditions: 2 hours at 37° C., 96-well plate coated overnight
Procedure: 96-well polystyrene plates were coated with the indicated amounts of GST-OPN forms or control fibronectin ([…]) in […] at 4° C. overnight. The wells were washed twice with cold PBS followed by blocking with 1% BSA for 1 h at 37° C. MCF-7 parental cells were used to assay adhesion. Cells were trypsinized and treated with soybean trypsin inhibitor, then washed twice with PBS and resuspended in adhesion buffer (0.1% BSA, 1 mM sodium pyruvate, 2 mM MgCl2). Cells (2×10^4 cell/well) were added to the above 96-well plates and allowed to adhere at 37° C. for two hours. Non-adherent cells were removed by rinsing twice with PBS. Adherent cells were counted and photographed. For adhesion to aggregated OPN, 1 μg of GST or GST-OPN forms were added to 96-well plated in aggregation buffer (0.2 M NaCl, 0.05 M Tris-HCl, pH 7.6, 5 mM CaCl2 final concentration) and incubated at 4° C. overnight. All adhesion assays were performed with triplicate wells and were repeated at least three times.
Stably transfected cells were plated at 5000 cells/well (24-well plate) on day 0. On every consecutive day, five wells per cell line were harvested and the total number of cells was counted. […] Aggregation was assessed after 16 hours at increasing calcium concentrations. Consecutively denaturing, non-reducing SDS-PAGE and Western blotting for OPN was performed. […]

| Substance | size of the clones formed in soft agar (MCF-7 cells [1]) | cell growth (MCF-7 cells [2]) | cell spreading of adhered cells on coated plastic (MCF-7 cells [3]) |
| --- | --- | --- | --- |
| SGSSEEKQNAVSSEET (Peptide representing a domain encompassing the splice junction of Exon 3 and 5) [SEQ ID NO: 8, OPNc peptide, domain around the splice junction of OPN variant-c] | enhanced soft agar clone formation | did not support the growth of cells in plastic dishes | – |
| Ac-SGSSEEKQNAVSSEET-NH2 [SEQ ID NO: 37] | increasing the size of the clones formed in soft agar | no effect on cell growth | – |
| fibronectin | – | – | cell spreading |
| NAVSSEETNDFKQE (Control peptide derived from Exon 5) [SEQ ID NO: 34, hOPN Exon-5 peptide, non-specific control, reference compound] | no effect | – | – |
| SSEEQETGVEKASSNS (Control peptide for OPNcPEP) [SEQ ID NO: 33, scrambled hOPN-c peptide, non-specific control, reference compound] | no effect | – | – |
